Test results: ChEMBL document CHEMBL3885861, “Open TG-GATES”

Species on record: Rattus norvegicus
Assay: Open TG-GATES - Regimen: Daily Repeat
Type: toxicity, organism-based, Sprague-Dawley
Parameters: regimen Daily Repeat, gender Male, age 6 weeks
Conditions: in vivo, po, 0 mg/kg, route gavage, dose level Control; for APTT / Bas / Eos / Fbg / Ht / Lym / MCH / MCHC / MCV / PT / Plat / RBC / Ret / WBC / Hb / Mono: tissue Blood; for KIDNEY_L / KIDNEY_R / KIDNEY_TOTAL: tissue Kidney; for LIVER: tissue Liver; for ALP / ALT / AST / CRE / Ca / Cl / DBIL / IP / K / LDH / Na / PL / RALB / TBIL / TC / TG / TP / gamma-GTP / BUN: tissue Plasma

C#C[C@]1(O)CC[C@H]2[C@@H]3CCc4cc(O)ccc4[C@H]3CC[C@@]21C [ETHINYL ESTRADIOL]
TERMINAL_BW (72 h, time 3 day): 222.5 g
APTT (72 h, time 3 day): 16.4 s
Bas (72 h, time 3 day): 0.2%
Eos (72 h, time 3 day): 1%
Fbg (72 h, time 3 day): 261.6 mg/dL
Ht (72 h, time 3 day): 40.2%
Lym (72 h, time 3 day): 79%
MCH (72 h, time 3 day): 21.4 pg
MCHC (72 h, time 3 day): 33.5%
MCV (72 h, time 3 day): 63.8 fL
PT (72 h, time 3 day): 12.3 s
Plat (72 h, time 3 day): 110.8 x10_4/uL
RBC (72 h, time 3 day): 630.4 x10_4/ul
Ret (72 h, time 3 day): 7.8%
WBC (72 h, time 3 day): 93.3 x10_2/uL
KIDNEY_L (72 h, time 3 day): 0.9 g
KIDNEY_R (72 h, time 3 day): 1 g
LIVER (72 h, time 3 day): 10.3 g
ALP (72 h, time 3 day): 1467.2 IU/L
ALT (72 h, time 3 day): 49.6 IU/L
AST (72 h, time 3 day): 73.2 IU/L
CRE (72 h, time 3 day): 0.2 mg/dL
Ca (72 h, time 3 day): 10.8 mg/dL
Cl (72 h, time 3 day): 106.8 meq/L
DBIL (72 h, time 3 day): 0.018 mg/dL
IP (72 h, time 3 day): 6.5 mg/dL
K (72 h, time 3 day): 4 meq/L
LDH (72 h, time 3 day): 68.4 IU/L
Na (72 h, time 3 day): 143.2 meq/L
PL (72 h, time 3 day): 134.2 mg/dL
RALB (72 h, time 3 day): 2.6 g/dL
TBIL (72 h, time 3 day): 0.034 mg/dL
TC (72 h, time 3 day): 77.8 mg/dL
TG (72 h, time 3 day): 98.2 mg/dL
TP (72 h, time 3 day): 5.5 g/dL
gamma-GTP (72 h, time 3 day): 1.2 IU/L
TERMINAL_BW ([…], time 14 day): 321.6 g
TERMINAL_BW ([…], time 28 day): 423 g
APTT ([…], time 14 day): 16.7 s
Bas ([…], time 14 day): 0%
Eos ([…], time 14 day): 1%
Fbg ([…], time 14 day): 279.4 mg/dL
Hb ([…], time 14 day): 13.9 g/dL
Ht ([…], time 14 day): 40.3%
Lym ([…], time 14 day): 76.4%
MCH ([…], time 14 day): 20.9 pg
MCV ([…], time 14 day): 60.2 fL
Mono ([…], time 14 day): 2.4%
PT ([…], time 14 day): 11.8 s
Plat ([…], time 14 day): 120 x10_4/uL
RBC ([…], time 14 day): 668.4 x10_4/ul
Ret ([…], time 14 day): 4.5%
WBC ([…], time 14 day): 90.3 x10_2/uL
APTT ([…], time 28 day): 18 s
Bas ([…], time 28 day): 0.2%
Eos ([…], time 28 day): 1%
Fbg ([…], time 28 day): 294.2 mg/dL
Hb ([…], time 28 day): 15 g/dL
Ht ([…], time 28 day): 42.5%
Lym ([…], time 28 day): 79.4%
MCH ([…], time 28 day): 20.3 pg
MCHC ([…], time 28 day): 35.3%
MCV ([…], time 28 day): 57.3 fL
Mono ([…], time 28 day): 2.2%
Plat ([…], time 28 day): 88.3 x10_4/uL
RBC ([…], time 28 day): 742.6 x10_4/ul
Ret ([…], time 28 day): 2.6%
WBC ([…], time 28 day): 108.2 x10_2/uL
KIDNEY_L ([…], time 14 day): 1.3 g
KIDNEY_R ([…], time 14 day): 1.3 g
KIDNEY_TOTAL ([…], time 14 day): 2.6 g
KIDNEY_L ([…], time 28 day): 1.4 g
KIDNEY_R ([…], time 28 day): 1.4 g
KIDNEY_TOTAL ([…], time 28 day): 2.8 g
LIVER ([…], time 14 day): 14.4 g
LIVER ([…], time 28 day): 18.3 g
ALP ([…], time 14 day): 1586.6 IU/L
ALT ([…], time 14 day): 44.2 IU/L
AST ([…], time 14 day): 66.6 IU/L
BUN ([…], time 14 day): 15.4 mg/dL
CRE ([…], time 14 day): 0.2 mg/dL
Ca ([…], time 14 day): 11.3 mg/dL
Cl ([…], time 14 day): 104.8 meq/L
DBIL ([…], time 14 day): 0.016 mg/dL
IP ([…], time 14 day): 6.5 mg/dL
K ([…], time 14 day): 3.9 meq/L
LDH ([…], time 14 day): 72.8 IU/L
Na ([…], time 14 day): 143.2 meq/L
PL ([…], time 14 day): 143 mg/dL
TBIL ([…], time 14 day): 0.07 mg/dL
TC ([…], time 14 day): 74.6 mg/dL
TG ([…], time 14 day): 104.4 mg/dL
TP ([…], time 14 day): 6 g/dL
gamma-GTP ([…], time 14 day): 0.8 IU/L
ALP ([…], time 28 day): 1125 IU/L
ALT ([…], time 28 day): 39.4 IU/L
AST ([…], time 28 day): 58 IU/L
BUN ([…], time 28 day): 16 mg/dL
CRE ([…], time 28 day): 0.2 mg/dL
Cl ([…], time 28 day): 104.8 meq/L
DBIL ([…], time 28 day): 0.012 mg/dL
IP ([…], time 28 day): 6.1 mg/dL
K ([…], time 28 day): 3.8 meq/L
LDH ([…], time 28 day): 59.2 IU/L
Na ([…], time 28 day): 143.2 meq/L
PL ([…], time 28 day): 155.8 mg/dL
RALB ([…], time 28 day): 2.9 g/dL
TBIL ([…], time 28 day): 0.066 mg/dL
TC ([…], time 28 day): 80.4 mg/dL
TG ([…], time 28 day): 137.2 mg/dL
TP ([…], time 28 day): 6.3 g/dL
gamma-GTP ([…], time 28 day): 1 IU/L
